Laboratory results published in PubChem BioAssay (NCI).
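Cells were grown in 96-well plates and exposed to each compound for 48 hours at five concentrations; endpoints were interpolated linearly between bracketing concentrations, or set to the highest concentration if not reached. At the TGI there is no net growth.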

Columns and labels:
Test in all cases: DTP human tumour cell line panel, 48 h
TK-10 renal = system: TK-10 renal
UO-31 renal = system: UO-31 renal
NCI-H522 lung = system: NCI-H522 lung
M14 melanoma = system: M14 melanoma
NCI/ADR-RES ovarian = system: NCI/ADR-RES ovarian
CCRF-CEM leukemia = system: CCRF-CEM leukemia
HT29 colon = system: HT29 colon
SNB-19 CNS = system: SNB-19 CNS
HCT-15 colon = system: HCT-15 colon
NCI-H226 lung = system: NCI-H226 lung
OVCAR-8 ovarian = system: OVCAR-8 ovarian
UACC-62 melanoma = system: UACC-62 melanoma
OVCAR-5 ovarian = system: OVCAR-5 ovarian
IGROV1 ovarian = system: IGROV1 ovarian
U251 CNS = system: U251 CNS
SK-OV-3 ovarian = system: SK-OV-3 ovarian
MDA-MB-231 breast = system: MDA-MB-231 breast
T-47D breast = system: T-47D breast
CAKI-1 renal = system: CAKI-1 renal
RPMI-8226 leukemia = system: RPMI-8226 leukemia
DU-145 prostate = system: DU-145 prostate
SW-620 colon = system: SW-620 colon
A498 renal = system: A498 renal
MALME-3M melanoma = system: MALME-3M melanoma
HOP-62 NSCLC = system: HOP-62 NSCLC
MCF7 breast = system: MCF7 breast
SN12C renal = system: SN12C renal
HS 578T breast = system: HS 578T breast
KM12 colon = system: KM12 colon
HCT-116 colon = system: HCT-116 colon
HOP-92 NSCLC = system: HOP-92 NSCLC
A549 NSCLC = system: A549 NSCLC
ACHN renal = system: ACHN renal
COLO 205 colon = system: COLO 205 colon
EKVX NSCLC = system: EKVX NSCLC
RXF 393 renal = system: RXF 393 renal
NCI-H460 lung = system: NCI-H460 lung
SNB-75 CNS = system: SNB-75 CNS
SK-MEL-5 melanoma = system: SK-MEL-5 melanoma
OVCAR-3 ovarian = system: OVCAR-3 ovarian
MOLT-4 leukemia = system: MOLT-4 leukemia
NCI-H23 lung = system: NCI-H23 lung
MDA-N = system: MDA-N
LOX IMVI melanoma = system: LOX IMVI melanoma
SK-MEL-2 melanoma = system: SK-MEL-2 melanoma
K-562 leukemia = system: K-562 leukemia
SK-MEL-28 melanoma = system: SK-MEL-28 melanoma
SF-539 CNS = system: SF-539 CNS
OVCAR-4 ovarian = system: OVCAR-4 ovarian
UACC-257 melanoma = system: UACC-257 melanoma
HCC-2998 colon = system: HCC-2998 colon
SF-295 CNS = system: SF-295 CNS
BT-549 breast = system: BT-549 breast
SR leukemia = system: SR leukemia
SF-268 CNS = system: SF-268 CNS
MDA-MB-435 = system: MDA-MB-435
786-0 renal = system: 786-0 renal
PC-3 prostate = system: PC-3 prostate

CC12c3c4cccc3Oc3cc(N)cc(c31)Oc1cc(N)cc(c12)O4
TGI (TK-10 renal): 25.3 µM | TGI (UO-31 renal): > 50.6 µM | TGI (NCI-H522 lung): 4.74 µM | TGI (M14 melanoma): 19.6 µM | TGI (NCI/ADR-RES ovarian): > 26.3 µM | TGI (CCRF-CEM leukemia): 3.74 µM | TGI (HT29 colon): 40.3 µM | TGI (SNB-19 CNS): 38.5 µM | TGI (HCT-15 colon): > 36.7 µM | TGI (NCI-H226 lung): 13.6 µM | TGI (OVCAR-8 ovarian): 32 µM | TGI (UACC-62 melanoma): 18.5 µM | TGI (OVCAR-5 ovarian): 16.1 µM | TGI (IGROV1 ovarian): 13.6 µM | TGI (U251 CNS): > 100 µM | TGI (SK-OV-3 ovarian): 14.8 µM | TGI (MDA-MB-231 breast): 27.4 µM | TGI (T-47D breast): > 48.5 µM | TGI (CAKI-1 renal): 24.9 µM | TGI (RPMI-8226 leukemia): > 38.1 µM | TGI (DU-145 prostate): 22.6 µM | TGI (SW-620 colon): 22.6 µM | TGI (A498 renal): 34 µM | TGI (MALME-3M melanoma): 10.8 µM | TGI (HOP-62 NSCLC): 18.2 µM | TGI (MCF7 breast): > 40.6 µM | TGI (SN12C renal): 28.6 µM | TGI (HS 578T breast): 28.1 µM | TGI (KM12 colon): > 39.7 µM | TGI (HCT-116 colon): 9.44 µM | TGI (HOP-92 NSCLC): 74.5 µM | TGI (A549 NSCLC): > 40.7 µM | TGI (ACHN renal): 23.1 µM | TGI (COLO 205 colon): 12.1 µM | TGI (EKVX NSCLC): 9.52 µM | TGI (RXF 393 renal): 2.67 µM | TGI (NCI-H460 lung): > 37.6 µM | TGI (SNB-75 CNS): 14.7 µM | TGI (SK-MEL-5 melanoma): 13 µM | TGI (OVCAR-3 ovarian): 7.04 µM | TGI (MOLT-4 leukemia): 40.2 µM | TGI (NCI-H23 lung): > 46 µM | TGI (MDA-N): 3.59 µM | TGI (LOX IMVI melanoma): > 41.9 µM | TGI (SK-MEL-2 melanoma): 26.5 µM | TGI (K-562 leukemia): > 51.5 µM | TGI (SK-MEL-28 melanoma): 27.6 µM | TGI (SF-539 CNS): 11.8 µM | TGI (OVCAR-4 ovarian): 23.9 µM | TGI (UACC-257 melanoma): 18.3 µM | TGI (HCC-2998 colon): > 39 µM | TGI (SF-295 CNS): 9.2 µM | TGI (BT-549 breast): 13 µM | TGI (SR leukemia): 22.6 µM | TGI (SF-268 CNS): 10.5 µM | TGI (MDA-MB-435): 4.4 µM | TGI (786-0 renal): 8.72 µM | TGI (PC-3 prostate): 12.1 µM

C=C(C)c1nc(C#N)c(N)o1
TGI (TK-10 renal): > 100 µM | TGI (UO-31 renal): > 100 µM | TGI (M14 melanoma): > 100 µM | TGI (NCI/ADR-RES ovarian): > 100 µM | TGI (CCRF-CEM leukemia): > 100 µM | TGI (HT29 colon): > 100 µM | TGI (SNB-19 CNS): > 100 µM | TGI (HCT-15 colon): > 100 µM | TGI (NCI-H226 lung): > 100 µM | TGI (OVCAR-8 ovarian): > 100 µM | TGI (OVCAR-5 ovarian): > 100 µM | TGI (IGROV1 ovarian): > 100 µM | TGI (U251 CNS): > 100 µM | TGI (SK-OV-3 ovarian): > 100 µM | TGI (MDA-MB-231 breast): > 100 µM | TGI (T-47D breast): > 100 µM | TGI (CAKI-1 renal): > 100 µM | TGI (RPMI-8226 leukemia): > 100 µM | TGI (DU-145 prostate): > 100 µM | TGI (SW-620 colon): > 100 µM | TGI (MALME-3M melanoma): > 100 µM | TGI (HOP-62 NSCLC): > 100 µM | TGI (MCF7 breast): > 100 µM | TGI (SN12C renal): > 100 µM | TGI (HS 578T breast): > 100 µM | TGI (KM12 colon): > 100 µM | TGI (HCT-116 colon): > 100 µM | TGI (A549 NSCLC): > 100 µM | TGI (ACHN renal): > 100 µM | TGI (COLO 205 colon): > 100 µM | TGI (EKVX NSCLC): > 100 µM | TGI (RXF 393 renal): > 100 µM | TGI (NCI-H460 lung): > 100 µM | TGI (SK-MEL-5 melanoma): > 100 µM | TGI (OVCAR-3 ovarian): > 100 µM | TGI (MOLT-4 leukemia): > 100 µM | TGI (NCI-H23 lung): > 100 µM | TGI (MDA-N): > 100 µM | TGI (LOX IMVI melanoma): > 100 µM | TGI (SK-MEL-2 melanoma): > 100 µM | TGI (K-562 leukemia): > 100 µM | TGI (SK-MEL-28 melanoma): > 100 µM | TGI (SF-539 CNS): > 100 µM | TGI (OVCAR-4 ovarian): > 100 µM | TGI (UACC-257 melanoma): > 100 µM | TGI (HCC-2998 colon): > 100 µM | TGI (SF-295 CNS): > 100 µM | TGI (BT-549 breast): > 100 µM | TGI (SR leukemia): > 100 µM | TGI (SF-268 CNS): > 100 µM | TGI (MDA-MB-435): > 100 µM | TGI (786-0 renal): > 100 µM | TGI (PC-3 prostate): > 100 µM

COc1cc2nc3c(=C(C#N)C#N)c4ccccc4n3c(=O)c2cc1OC
TGI (TK-10 renal): > 100 µM | TGI (UO-31 renal): > 100 µM | TGI (NCI-H522 lung): > 100 µM | TGI (M14 melanoma): > 100 µM | TGI (NCI/ADR-RES ovarian): > 100 µM | TGI (CCRF-CEM leukemia): > 100 µM | TGI (HT29 colon): > 100 µM | TGI (SNB-19 CNS): > 100 µM | TGI (HCT-15 colon): > 100 µM | TGI (NCI-H226 lung): > 100 µM | TGI (OVCAR-8 ovarian): > 100 µM | TGI (UACC-62 melanoma): > 100 µM | TGI (OVCAR-5 ovarian): > 100 µM | TGI (IGROV1 ovarian): > 100 µM | TGI (U251 CNS): > 100 µM | TGI (SK-OV-3 ovarian): > 100 µM | TGI (MDA-MB-231 breast): > 100 µM | TGI (T-47D breast): > 100 µM | TGI (CAKI-1 renal): > 100 µM | TGI (RPMI-8226 leukemia): > 100 µM | TGI (DU-145 prostate): > 100 µM | TGI (SW-620 colon): > 100 µM | TGI (A498 renal): > 100 µM | TGI (HOP-62 NSCLC): > 100 µM | TGI (MCF7 breast): > 100 µM | TGI (SN12C renal): > 100 µM | TGI (HS 578T breast): > 100 µM | TGI (KM12 colon): > 100 µM | TGI (HCT-116 colon): > 100 µM | TGI (HOP-92 NSCLC): > 100 µM | TGI (A549 NSCLC): > 100 µM | TGI (ACHN renal): > 100 µM | TGI (COLO 205 colon): > 100 µM | TGI (EKVX NSCLC): > 100 µM | TGI (RXF 393 renal): > 100 µM | TGI (NCI-H460 lung): > 100 µM | TGI (SNB-75 CNS): > 100 µM | TGI (SK-MEL-5 melanoma): > 100 µM | TGI (OVCAR-3 ovarian): > 100 µM | TGI (MOLT-4 leukemia): > 100 µM | TGI (NCI-H23 lung): > 100 µM | TGI (MDA-N): > 100 µM | TGI (LOX IMVI melanoma): > 100 µM | TGI (SK-MEL-2 melanoma): > 100 µM | TGI (K-562 leukemia): > 100 µM | TGI (SF-539 CNS): > 100 µM | TGI (OVCAR-4 ovarian): > 100 µM | TGI (UACC-257 melanoma): > 100 µM | TGI (HCC-2998 colon): > 100 µM | TGI (SF-295 CNS): > 100 µM | TGI (BT-549 breast): > 100 µM | TGI (SR leukemia): > 100 µM | TGI (SF-268 CNS): > 100 µM | TGI (MDA-MB-435): > 100 µM | TGI (786-0 renal): > 100 µM | TGI (PC-3 prostate): > 100 µM
